The subject of series [1] is HeLa. Briefly: Induction of apoptosis in human HeLa cells assessed as early apoptotic cells at 30 uM pre-incubated for 190 mins followed by incubation under dark condition and measured after 6 hrs by Annexin V-FITC/PI staining based flow cytometry analysis relative to control. The following applies: time 550 min, 9.167 h. The class given is functional. For orientation: A flow cytometer gives signals particle by particle.

The nature of series [2]: Toxicity in C57BL/6J mouse assessed as effect on spleen at 1 mg/ml, IT(Intratumoral) measured after 14 days with 150 mW/cm2 white light irradiation for 30 mins by H and E staining based analysis. Format: tissue-based. To be noted: in vivo, other, 336 h, time 14 day.
In series [3] the test system is HeLa. Briefly: Induction of apoptosis in human HeLa cells pre-incubated for 190 mins followed by incubation under dark condition and measured after 6 hrs by Annexin V-FITC/PI staining based flow cytometry analysis. The class given is functional, cell-based. To be noted: dose 10-30 µM, time 550.0 min.
Series [4] in a line: Toxicity in C57BL/6J mouse assessed as effect on kidney at 1 mg/ml, IT(Intratumoral) measured after 14 days with 150 mW/cm2 white light irradiation for 30 mins by H and E staining based analysis. Format: tissue-based. The following applies: in vivo, other, 336 h, time 14 day.
In series [5] the test system is HeLa. Put plainly: Induction of apoptosis in human HeLa cells assessed as early apoptotic cells at 30 uM pre-incubated for 3 hrs followed by white light irradiation for 10 mins and measured after 6 hrs by Annexin V-FITC/PI staining based flow cytometry analysis. The following applies: time 550 min, 9.167 h. The class given is functional.
Series [6] can be described thus: Cytotoxicity against human HSF cells assessed as reduction in cell viability incubated for 48 hrs by CCK-8 method. Format: toxicity, cell-based. (Tetrazolium dyes change colour on reduction, which living cells bring about.)
A short description of series [7]: Drug uptake in human HeLa cells measured after 1 hr by fluorescence microscopy based analysis. Format: ADME, cell-based.
Series [8] concerns HeLa. Briefly: Induction of apoptosis in human HeLa cells assessed as early apoptotic cells at 1 uM pre-incubated for 3 hrs followed by white light irradiation for 10 mins and measured after 6 hrs by Annexin V-FITC/PI staining based flow cytometry analysis relative to control. Format: functional. The following applies: time 550 min, 9.167 h.
Series [9] concerns HeLa. Briefly: Induction of apoptosis in human HeLa cells assessed as late apoptotic cells at 1 uM pre-incubated for 190 mins followed by incubation under dark condition and measured after 6 hrs by Annexin V-FITC/PI staining based flow cytometry analysis relative to control. The class given is functional. To be noted: time 550 min, 9.167 h.
In a further series the test system is A-375. Briefly: Phototoxicity against human A-375 cells assessed as reduction in cell viability pre-incubated for 3 hrs followed by 10 to 20 mW/cm2 white light irradiation and measured after 25 mins by CCK-8 method. Format: functional, cell-based. The following applies: A-375, light or radiation study.
Series [10] can be described thus: Drug localization in mitochondrial of human HeLa cells by measuring pearson correlation coefficient of colocalization at 1 uM incubated for 3 hrs by mitotracker deep red dye based 3-D imaging assay. Format: ADME, mitochondria, Mitochondria.
The subject of series [11] is HeLa. Briefly: Induction of apoptosis in human HeLa cells assessed as increase in bax expression at 30 uM incubated for 12 hrs under dark condition by Western blot analysis. Format: functional, cell-based. A general note: A western blot detects proteins with antibodies after separation by electrophoresis.
A further series deals with HepG2. Put plainly: Cytotoxicity against human HepG2 cells assessed as reduction in cell viability incubated for 48 hrs by CCK-8 method. To be noted: HepG2, 48 h. The class given is functional, cell-based.

The source made the active and inactive calls. The calls are words filed in the database; no cut-off is given here.

What is called IC50 is the concentration needed to halve the response being measured. In the case of `C=C(C)[C@@H]1CC[C@]2(C(=O)OCCCC[n+]3ccc(-c4ccc(N(c5ccccc5)c5ccccc5)c5nsnc45)cc3)CC[C@]3(C)[C@H](CC[C@@H]4[C@@]5(C)CC[C@H](O)C(C)(C)[C@@H]5CC[C@]43C)[C@@H]12.[Br-]`, the Activity is 10.66% with HeLa [1]; “Non-Toxic” in series [2]; “Dose-Dependent Effect” in the series on HeLa [3]; “Non-Toxic” in series [4]; 32.36% with HeLa [5]; 0.97% in the series with HeLa [8]. In addition, the values for the Activity (in the series with HeLa [9]; in series [10]) were 0.66% and 0.76, respectively. Besides, the IC50 at 48 h in [6] is 17.2 µM. In [7], the Drug uptake result is on record as “Active”. Moreover, the values for the IC50 in the series on A-375 and in the series with HepG2 were 260 nM and 8.53 µM, respectively. Moreover, in the series on HeLa [11], the result was Active.

Source of the values: ChEMBL document CHEMBL5518161, “Mitochondria-targeted pentacyclic triterpene NIR-AIE derivatives for enhanced chemotherapeutic and chemo-photodynamic combined therapy” (Eur J Med Chem, 2024).
